Laboratory results taken from US10369188B2, “Methods for preventing and treating pneumocystis infections” (Cidara Therapeutics, Inc., priority 2016, dated 2019).

Tested on: Pneumocystis murina
Experiment: Pneumocystis murina prophylaxis study in dexamethasone-immunosuppressed mice (lung nuclei and asci counts)
Type: in vivo, C3H/HeN mice
Details: positive control group, 50/250 mg/kg/3x/wk, 6 weeks
Description: Briefly, the vehicle was prepared by first adding 1% Tween 20 to sterile phosphate-buffered saline (PBS) and then adding DMSO for a 10% DMSO in 1% Tween 20 in sterile PBS solution. […] For the 20 mg/kg/d dose, the drug was dissolved in vehicle to a concentration of 2.4 mg/ml. The mice then received 0.48 mg in a 200 μl dose. The drug was stored at −20° C. until initiation of dosage. The drug was prepared fresh for every two days of dosing.
C3H/HeN mice (Charles River) were infected with P. murina by intranasal inoculation of P. murina organisms at 2×106/50 μl from our liquid nitrogen repository. Prior to inoculation, the P. murina organisms were pre-incubated overnight in RPMI 1640 medium supplemented with calf serum and antibiotics to eliminate any bacterial contamination. […] Slides were made from the lung homogenates at different dilutions and stained with Diff-Quik to quantify the trophic forms and cresyl echt violet to quantify the asci.
Efficacy is based on the reduction of organism burden between the treatment groups and the negative control group as determined by microscopic evaluation. The nuclei and asci counts for each lung are log transformed and statistical analysis is determined by the analysis of variance (ANOVA); individual groups are compared by the Student-Newman-Keuls t test for multiple comparisons using GraphPad Prism. […]

For trimethoprim/sulfamethoxazole [TMP/SMX], the “asci observed by microscopic evaluation” value was “no asci observed” and the “nuclei seen by microscopic evaluation” value was “no nuclei seen”.
